Data: PubChem BioAssay (NCI)
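Step 1: Grow cells in 96-well plates. Step 2: Expose to compound for 48 hours at 5 concentrations. Step 3: Interpolate endpoints linearly; if unreached, use highest concentration. GI50: concentration for 50% inhibition of growth. Definition used: TGI = concentration required for complete inhibition of growth.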

How the values were obtained:
Assay in all cases: NCI anticancer screen, dose series, 48 h
MDA-MB-231 breast = system: MDA-MB-231 breast
MCF7 breast = system: MCF7 breast
MDA-N = system: MDA-N
CCRF-CEM leukemia = system: CCRF-CEM leukemia
HOP-92 NSCLC = system: HOP-92 NSCLC
HCT-116 colon = system: HCT-116 colon
UACC-257 melanoma = system: UACC-257 melanoma
EKVX NSCLC = system: EKVX NSCLC
SK-OV-3 ovarian = system: SK-OV-3 ovarian

SMILES	TGI (MDA-MB-231 breast) [µM]	TGI (MCF7 breast) [µM]	TGI (MDA-N) [µM]	TGI (CCRF-CEM leukemia) [µM]	TGI (HOP-92 NSCLC) [µM]	TGI (HCT-116 colon) [µM]	TGI (UACC-257 melanoma) [µM]	TGI (EKVX NSCLC) [µM]	TGI (SK-OV-3 ovarian) [µM]	GI50 (MDA-MB-231 breast) [µM]	GI50 (MCF7 breast) [µM]	GI50 (CCRF-CEM leukemia) [µM]	GI50 (HOP-92 NSCLC) [µM]	GI50 (HCT-116 colon) [µM]	GI50 (UACC-257 melanoma) [µM]	GI50 (EKVX NSCLC) [µM]
CC(=O)OC1C(C)OC(OC2C[C@](O)(C(C)=O)Cc3c(O)c4c(c(O)c32)C(=O)c2ccccc2C4=O)C(F)C1OC(C)=O (stereo partly drawn)	10.7	> 20.2	> 100	1.51	6.52	2.84	9.02	99.2	22.1	–	–	–	–	–	–	–
O=C1CSC(c2cccc(Oc3ccccc3)c2)N1c1cc(Cl)ccc1Cl (stereo not drawn)	43.3	23	35.7	> 100	42.7	34.4	50.1	80.9	> 100	–	–	–	–	–	–	–
C[C@@H](c1ccccc1)N(CC#N)[C@H]1CCC[C@]1(O)/C=C/c1ccc2c(c1)OCO2	> 25	11.5	> 25	> 25	> 25	> 25	> 25	> 25	> 25	–	–	–	–	–	–	–
CCCCSC1=N/C(=C\c2ccccc2O)C(Cl)=N1	> 100	> 100	> 100	–	> 100	> 100	> 100	> 100	> 100	–	–	–	–	–	–	–
CCOP(=O)(OCC)/C(C#N)=C(\C)c1ccco1	> 10	> 10	> 10	> 10	> 10	> 10	> 10	> 10	> 10	–	–	–	–	–	–	–
Nc1nc(Nc2cc(F)c(Cl)c(F)c2)cc(=O)[nH]1	> 100	> 100	–	> 100	> 100	> 100	> 100	> 100	> 100	–	–	–	–	–	–	–
CC(C)[C@H](NC(=O)OCc1ccccc1)C(=O)N[C@H](/C=C/C(=O)OC(C)(C)C)CO	> 100	> 100	> 100	> 100	> 100	> 100	> 100	> 100	> 100	–	–	–	–	–	–	–
O=C1Cc2c(-c3ccccc3)cc(-c3ccc(Cl)cc3)nc2-c2ccccc2N1	19.2	> 72.2	35.4	> 53.4	8.72	11.9	> 58.2	> 43.6	7.85	–	–	–	–	–	–	–
O=C(NCc1ccc(Cl)c(Cl)c1)c1nc2ccccc2nc1NCc1ccc(Cl)c(Cl)c1	> 100	> 100	> 100	> 100	> 100	> 100	> 100	> 100	–	–	–	–	–	–	–	–
O=CC12CCCN1CCC2	> 100	–	> 100	> 100	–	> 100	> 100	> 100	> 100	–	–	–	–	–	–	–
CC(=O)OC/C=C/Cn1nc(Br)c(=O)[nH]c1=O	> 100	> 100	> 100	> 100	> 100	> 100	> 100	> 100	–	–	–	–	–	–	–	–
CSC(=NCCCN=C(NS(=O)(=O)c1ccc(Cl)cc1)SC)NS(=O)(=O)c1ccc(Cl)cc1	> 100	52.8	61.4	> 100	67.9	> 100	> 100	53.1	> 100	–	–	–	–	–	–	–
N#Cc1c2c(c(Nc3ccc(Cl)cc3)n3c1nc1ccccc13)CCCC2	> 100	> 100	–	> 100	> 100	> 100	> 100	> 100	> 100	–	–	–	–	–	–	–
CN1Cc2c(ccc3c2OCO3)[C@@H]2[C@H](O)Cc3cc4c(cc3[C@@H]21)OCO4	24.6	> 48.7	1.46	> 29.2	> 100	> 44.7	> 100	> 100	> 29.9	–	–	–	–	–	–	–
CC(C)(C)OC(=O)NCCCCC1NC(=O)[C@@H]2Cc3c([nH]c4ccccc34)C(c3ccccc3)N2C1=O (stereo partly drawn)	94.6	> 100	> 100	> 100	85.1	> 100	> 100	> 100	> 100	–	–	–	–	–	–	–
CCc1nc2cc(F)ccc2[nH]c1=O	> 100	> 100	> 100	> 100	> 100	> 100	> 100	> 100	> 100	–	–	–	–	–	–	–
COc1cc(COC(=O)NC(Cc2cccs2)C(=O)O)c([N+](=O)[O-])cc1OC (stereo not drawn)	–	> 100	> 100	> 100	> 100	> 100	> 100	> 100	> 100	–	–	–	–	–	–	–
COc1cc(CC2C(=O)OCC2Cc2ccc(OC)c(OC)c2)ccc1O (stereo not drawn)	> 100	> 100	> 100	> 100	> 100	> 100	> 100	> 100	> 100	–	–	–	–	–	–	–
O=C(CCc1ccccc1)NCCc1ccc(O)c(O)c1	> 72.3	93.9	28.5	27.1	> 78.7	> 66.7	> 100	> 100	> 100	–	–	–	–	–	–	–
O=C(c1ccccc1)n1c2ccc(Br)cc2c2nc3ccccc3nc21	> 100	> 100	> 100	> 100	> 100	> 100	> 100	> 100	–	–	–	–	–	–	–	–
CN(C)c1ccc(/C=C2\CCCCCC2=O)cc1	> 100	> 100	> 100	> 100	–	> 100	> 100	> 100	> 100	–	–	–	–	–	–	–
Oc1[nH]c2ccccc2c1N=Nc1nc(-c2ccccc2)cs1	99.7	> 100	> 100	–	> 100	> 100	> 100	76.7	> 100	–	–	–	–	–	–	–
COc1ccc(NC(=S)Nc2cccc(C)n2)cc1	> 100	> 100	–	> 100	> 100	> 100	> 100	> 100	> 100	–	–	–	–	–	–	–
CC(=O)Oc1cc(OC(C)=O)c2c(c1C)CC[C@@H]1[C@@H]2CC[C@]2(C)[C@@H](OC(C)=O)CC[C@@H]12	30.5	34.1	32.9	49.4	35.2	29.2	32	28	–	–	–	–	–	–	–	–
O=P1(C(O)c2ccccc2)N(Cc2ccccc2)[C@@H]2CCCC[C@H]2N1Cc1ccccc1 (stereo partly drawn)	53.8	> 100	> 100	> 100	–	> 100	56	> 100	> 100	–	–	–	–	–	–	–

SMILES	TGI (MDA-MB-231 breast) [µM]	TGI (MCF7 breast) [µM]	TGI (MDA-N) [µM]	TGI (CCRF-CEM leukemia) [µM]	TGI (HOP-92 NSCLC) [µM]	TGI (HCT-116 colon) [µM]	TGI (UACC-257 melanoma) [µM]	TGI (EKVX NSCLC) [µM]	TGI (SK-OV-3 ovarian) [µM]	GI50 (MDA-MB-231 breast) [µM]	GI50 (MCF7 breast) [µM]	GI50 (CCRF-CEM leukemia) [µM]	GI50 (HOP-92 NSCLC) [µM]	GI50 (HCT-116 colon) [µM]	GI50 (UACC-257 melanoma) [µM]	GI50 (EKVX NSCLC) [µM]
O=C1Cc2c([nH]c3c(Br)cccc23)-c2ccccc2N1	> 100	> 100	> 100	35.6	–	–	> 100	> 100	> 100	–	–	–	–	–	–	–
CCCSC1=N/C(=C\c2ccco2)C(=O)N1	> 100	> 100	> 100	–	> 100	> 100	> 100	> 100	> 100	–	–	–	–	–	–	–
COc1c(-c2nc3nc(N4CCN(C)CC4)ccc3[nH]2)cc(OC)c2c1nc(CCl)n2C	46.1	–	> 100	62.1	41.9	> 100	78.3	39.2	76.6	–	–	–	–	–	–	–
FC(F)(Sc1nc2ccccc2[nH]1)c1nc2ccccc2o1	> 100	> 100	> 100	> 100	> 100	> 100	> 100	–	> 100	–	–	–	–	–	–	–
Cc1cc(N(CCCl)CCCl)ccc1/C=N\NC(=O)c1cccnc1	> 100	> 100	–	> 100	59.3	> 100	34.9	> 100	–	29.3	16.8	9.23	17.3	26.9	6.96	48.8
N=c1sc(N2CCOCC2)nn1CC(=O)c1ccccc1	> 100	> 100	> 100	> 100	–	> 100	> 100	> 100	> 100	–	–	–	–	–	–	–
CCCCN1/C(=N/Nc2n[nH]c(=O)c3ccccc23)SCC1c1ccc(Cl)cc1 (stereo not drawn)	55	33.2	–	–	> 100	44.8	45.6	41.2	> 100	–	–	–	–	–	–	–
CCCCCNC(=O)OC1CCn2c1nc1c2C(=O)C(C)=C(N2CC2)C1=O (stereo not drawn)	5.31	2.21	2.88	> 100	72	4.33	3.22	–	–	–	–	–	–	–	–	–
CCCCC(C)(C/C=C/[C@@H]1[C@@H](C(O)CCCCCC(=O)OC)C(=O)C[C@H]1O[Si](C)(C)C(C)(C)C)O[Si](C)(C)C (stereo partly drawn)	> 100	> 100	–	85.4	> 100	> 100	> 100	> 100	> 100	–	–	–	–	–	–	–
COc1ccc(N=C(SSC(=Nc2ccc(OC)cc2)c2ccc([N+](=O)[O-])o2)c2ccc([N+](=O)[O-])o2)cc1	7.33	–	12.7	> 22.5	6.7	3.49	> 19.9	3.47	11.1	–	–	–	–	–	–	–
COc1ccc(-c2cc(-c3ccc(Nc4ccnc5cc(C(F)(F)F)ccc45)cc3)nc(N)c2C#N)c2ccccc12	> 100	> 100	–	–	> 100	> 100	–	> 100	> 100	–	–	–	–	–	–	–
CC1=C(C(=O)OC(C)(C)C)C(c2ccc([N+](=O)[O-])cc2)C(C(=O)OC(C)(C)C)=C(C)N1	41.4	31.8	48.6	–	29.7	36.4	40.6	38.4	73.3	–	–	–	–	–	–	–
Cn1c(=O)c2c(n(C)c1=O)n1c(=O)c3ccccc3nc1n2C	> 100	> 100	–	> 100	> 100	> 100	> 100	> 100	> 100	–	–	–	–	–	–	–
COc1ccc(/[N+]([O-])=C/c2ccccc2OC(=S)S)cc1	> 100	> 100	63.4	–	64.4	73.5	97.1	> 100	> 100	–	–	–	–	–	–	–
Nc1c(/C=C/c2cc3cc(C4=NCCN4)ccc3o2)[nH]c2cc(C3=NCCN3)ccc12	> 100	> 100	> 100	–	> 100	> 100	> 100	> 100	> 100	–	–	–	–	–	–	–
O=C(Nc1nc2ccc([N+](=O)[O-])cc2s1)c1cc([N+](=O)[O-])ccc1Cl	21.3	–	5.04	–	2.97	5.33	19.2	8.55	13.6	–	–	–	–	–	–	–
COC(=O)C1CCC(=S)N1C(C)=O (stereo not drawn)	> 100	> 100	> 100	–	> 100	> 100	> 100	> 100	> 100	–	–	–	–	–	–	–
CC(=O)OCc1cc2c(s1)C(=O)c1sccc1C2=O	0.692	0.416	–	–	1.68	3.38	0.244	0.36	3.3	–	–	–	–	–	–	–
O=C(C[N+]1(c2ccccc2)CCOCC1)c1ccccc1	> 100	–	> 100	–	> 100	> 100	> 100	> 100	–	–	–	–	–	–	–	–
COc1ccc(OC)c2c(Nc3ccc(S(=O)(=O)O)c4cc(S(=O)(=O)O)cc(S(=O)(=O)O)c34)cc(C)nc12	> 100	> 100	> 100	> 100	–	> 100	> 100	> 100	> 100	–	–	–	–	–	–	–
Cc1cccc2c1Oc1ncccc1C2NC(=O)CN(C)C (stereo not drawn)	–	> 10	–	> 10	> 10	–	> 10	> 10	> 10	–	–	–	–	–	–	–
CNc1nc(OC)c2c(n1)[n+](C)cn2C	> 100	–	> 100	> 100	> 100	> 100	> 100	> 100	> 100	–	–	–	–	–	–	–
CCc1n[nH]c(=O)n1-c1ccncc1	> 100	> 100	> 100	> 100	> 100	> 100	> 100	> 100	–	–	–	–	–	–	–	–
NNC(=O)COc1nc(-c2cccs2)nc2ccc(I)cc12	–	88.7	> 100	88.4	61.8	36.3	–	71	61	–	–	20	–	–	–	–
